Experimental data from patent US20110135671A1, “PURINE DERIVATIVES FOR USE IN THE TREATMENT OF ALLERGIC, INFLAMMATORY AND INFECTIOUS DISEASES” (GLAXOSMITHKLINE LLC, priority 2008, published 2011).

System: Interferon-α
Experiment: Induction of Interferon-α using cryopreserved human PBMCs
Format: cell-based
Conditions: PBMC, 24 h, normalised to 1 uM resiquimod, read-out: mean pEC50 for induction of Interferon-α (converted)
Description: Assay for the Induction of Interferon-α using Cryopreserved Human Peripheral Blood Mononuclear Cells (PBMCs)
Compounds were dissolved in DMSO. Serial 2-fold dilutions with DMSO were prepared and 0.25 μl dispensed into 384-well clear Greiner polypropylene plates.
Blood samples of up to 200 ml were obtained from healthy human donors. Whole blood in 25 ml volumes was overlaid onto 15 ml Ficoll gradients in Leucosep tubes, and centrifuged at 1000 g for 20 min. Cells in the band at the plasma/histopaque interface were carefully removed and washed twice with PBS (centrifuged at 400 g for 5 min to harvest). The final pellet was resuspended in freezing medium (90% Heat-inactivated serum, 10% DMSO) to a cell concentration of 4×10^7 cells/ml. The resuspended cells were then cryopreserved (frozen) using a rate controlled freezer, and stored at −140° C. for up to 4 months.
Incubation and Assay for Interferon-α
Immediately prior to assay, vials of cryopreserved (frozen) PBMCs were thawed rapidly in a water bath at 37° C. A 1:10 dilution of the cells in trypan blue was prepared and counted. The PBMCs were then diluted in growth media [RPMI 1640 containing 10% fetal calf serum (invitrogen), Penicillin+Streptavidin (Gibco cat. # 25030-024, 1:50), L-Glutamine 2 mM, and 1000 units/ml recombinant human IFN-gamma (Preprotech catalogue #300-02)] to a density of 1×10^6 cells/ml, and 50 ul/well dispensed to 384-well clear Greiner polypropylene plates containing 0.25 μl DMSO or test compound in 0.25 μl DMSO. […] Plates were incubated for 24 h at 37° C. in 5% CO2.
A multi-isoform immunoassay was used to quantify IFN-α in PBMC supernatants. Rabbit polyclonal antibody against human IFN-α (catalogue number 31101, Stratech Scientific) was diluted 1:10000 in assay buffer (RPMI 1640 containing 10% fetal calf serum, Invitrogen) and 20 μl was added to each well of an MSD (Meso-Scale Discovery) single small-spot 384-well GAR (goat anti-rabbit antibody coated) plate. The plate was incubated for 1 h at room temperature with vigorous shaking. Following three washes with PBS, 20 μl of cell supernatant were added to each well of the plate. The plate was then incubated for 1 h at room temperature with vigorous shaking. A pair of monoclonal antibodies to IFN-α (catalogue numbers 21100 and 21112, Stratech Scientific) were labelled with sulfo-TAG (MSD), diluted 1:1000 in assay buffer and 20 μl added to each well of the plate. The plate was further incubated for 1 h at room temperature with vigorous shaking. Following three washes with PBS, 30 μl of ×2 T buffer (MSD) was added to each well and the plate was read on an MSD Sector 6000 plate reader.
Data were normalised to internal plate controls of 1 uM resiquimod (n=16) and DMSO (n=16). pEC50 values were derived by 4-parameter curve fit with IRLS in ActivityBase, from 11-point, two-fold serial dilution of test compounds.

| SMILES | EC50 [µM] |
| --- | --- |
| CCCCNc1nc(N)c2[nH]c(=O)n(CCCCN3CCN(CCCC)CC3)c2n1 [Example 39, 6-Amino-2-(butylamino)-9-[4-(4-butyl-1-piperazinyl)butyl]-7,9-dihydro-8H-purin-8-one] | < 3.16 |
| CCCCNc1nc(N)c2[nH]c(=O)n(CCCCN3CCN(CC(C)C)CC3)c2n1 [Example 40, 6-Amino-2-(butylamino)-9-{4-[4-(2-methylpropyl)-1-piperazinyl]butyl}-7,9-dihydro-8H-purin-8-one] | < 3.16 |
| CCCCNc1nc(N)c2[nH]c(=O)n(CCCCN3CCN(CC4CC4)CC3)c2n1 [Example 42, 6-Amino-2-(butylamino)-9-{4-[4-(cyclopropylmethyl)-1-piperazinyl]butyl}-7,9-dihydro-8H-purin-8-one] | < 3.16 |
| CCCCNc1nc(N)c2[nH]c(=O)n(CCCCN3CCN(C4CCCC4)CC3)c2n1 [Example 43, 6-Amino-2-(butylamino)-9-[4-(4-cyclopentyl-1-piperazinyl)butyl]-7,9-dihydro-8H-purin-8-one] | < 3.16 |
| CCCCNc1nc(N)c2[nH]c(=O)n(CCCCN3CCN(C4CCCCC4)CC3)c2n1 [Example 44, 6-Amino-2-(butylamino)-9-[4-(4-cyclohexyl-1-piperazinyl)butyl]-7,9-dihydro-8H-purin-8-one] | < 3.16 |
| CCCCOc1nc(N)c2[nH]c(=O)n(CCCCCN3CCNCC3)c2n1 [Example 45, 6-Amino-2-(butyloxy)-9-[5-(1-piperazinyl)pentyl]-7,9-dihydro-8H-purin-8-one] | < 3.16 |
| CCCCOc1nc(N)c2[nH]c(=O)n(CCCCCN3CCN(CC)CC3)c2n1 [Example 47, 6-Amino-2-(butyloxy)-9-[5-(4-ethyl-1-piperazinyl)pentyl]-7,9-dihydro-8H-purin-8-one] | < 3.16 |
| CCC[C@H](C)Oc1nc(N)c2[nH]c(=O)n(CCCCCN3CCNCC3)c2n1 [Example 49, 6-Amino-2-{[(1S)-1-methylbutyl]oxy}-9-[5-(1-piperazinyl)pentyl]-7,9-dihydro-8H-purin-8-one] | < 3.16 |
| CCC[C@H](C)Oc1nc(N)c2[nH]c(=O)n(CCCCCN3CCN(C)CC3)c2n1 [Example 50, 6-Amino-2-{[(1S)-1-methylbutyl]oxy}-9-[5-(4-methyl-1-piperazinyl)pentyl]-7,9-dihydro-8H-purin-8-one] | < 3.16 |
| CCC[C@H](C)Oc1nc(N)c2[nH]c(=O)n(CCCCCN3CCN(CC)CC3)c2n1 [Example 51, 6-Amino-9-[5-(4-ethyl-1-piperazinyl)pentyl]-2-{[(1S)-1-methylbutyl]oxy}-7,9-dihydro-8H-purin-8-one] | < 3.16 |
| CCC[C@H](C)Oc1nc(N)c2[nH]c(=O)n(CCCCCN3CCN(C(C)(C)C)CC3)c2n1 [Example 53, 6-Amino-9-{5-[4-(1,1-dimethylethyl)-1-piperazinyl]pentyl}-2-{[(1S)-1-methylbutyl]oxy}-7,9-dihydro-8H-purin-8-one] | < 3.16 |
| CCCCOc1nc(N)c2[nH]c(=O)n(CCCCCCN3CCN(C)CC3)c2n1 [Example 55, 6-Amino-2-(butyloxy)-9-[6-(4-methyl-1-piperazinyl)hexyl]-7,9-dihydro-8H-purin-8-one] | < 3.16 |
| CCCCOc1nc(N)c2[nH]c(=O)n(CCCCCCN3CCN(CC)CC3)c2n1 [Example 56, 6-Amino-2-(butyloxy)-9-[6-(4-ethyl-1-piperazinyl)hexyl]-7,9-dihydro-8H-purin-8-one] | < 3.16 |
| CCCCOc1nc(N)c2[nH]c(=O)n(CCCCCN3CCN(CCCC)CC3)c2n1 [Example 59, 6-Amino-2-(butyloxy)-9-[5-(4-butyl-1-piperazinyl)pentyl]-7,9-dihydro-8H-purin-8-one] | < 3.16 |
| CCCCCN1CCN(CCCCCn2c(=O)[nH]c3c(N)nc(OCCCC)nc32)CC1 [Example 60, 6-Amino-2-(butyloxy)-9-[5-(4-pentyl-1-piperazinyl)pentyl]-7,9-dihydro-8H-purin-8-one] | < 3.16 |
| CCCCOc1nc(N)c2[nH]c(=O)n(CCCCCN3CCN(C(C)(C)C)CC3)c2n1 [Example 61, 6-Amino-2-(butyloxy)-9-{5-[4-(1,1-dimethylethyl)-1-piperazinyl]pentyl}-7,9-dihydro-8H-purin-8-one] | < 3.16 |
| CCCCOc1nc(N)c2[nH]c(=O)n(CCCCCN3CCN(C4CCCC4)CC3)c2n1 [Example 63, 6-Amino-2-(butyloxy)-9-[5-(4-cyclopentyl-1-piperazinyl)pentyl]-7,9-dihydro-8H-purin-8-one] | < 3.16 |
| CCCCOc1nc(N)c2[nH]c(=O)n(CCCCCN3CCN(C4CCCCC4)CC3)c2n1 [Example 64, 6-Amino-2-(butyloxy)-9-[5-(4-cyclohexyl-1-piperazinyl)pentyl]-7,9-dihydro-8H-purin-8-one] | < 3.16 |
| CCCCOc1nc(N)c2[nH]c(=O)n(CCCCCN3CCN(CC4CC4)CC3)c2n1 [Example 65, 6-Amino-2-(butyloxy)-9-{5-[4-(cyclopropylmethyl)-1-piperazinyl]pentyl}-7,9-dihydro-8H-purin-8-one] | < 3.16 |
| CCCCOc1nc(N)c2[nH]c(=O)n(CCCCCN3CCN(CC4CCCC4)CC3)c2n1 [Example 66, 6-Amino-2-(butyloxy)-9-{5-[4-(cyclopentylmethyl)-1-piperazinyl]pentyl}-7,9-dihydro-8H-purin-8-one] | < 3.16 |
| CCCCOc1nc(N)c2[nH]c(=O)n(CCCCN3CCNCC3)c2n1 [Example 67, 6-Amino-2-(butyloxy)-9-[4-(1-piperazinyl)butyl]-7,9-dihydro-8H-purin-8-one] | < 3.16 |
| CC[C@H](C)Oc1nc(N)c2[nH]c(=O)n(CCCCN3CCN(C(C)C)CC3)c2n1 [Example 68, 6-Amino-9-{4-[4-(1-methylethyl)-1-piperazinyl]butyl}-2-{[(1S)-1-methylpropyl]oxy}-7,9-dihydro-8H-purin-8-one] | < 3.16 |
| CCCC[C@H](C)Oc1nc(N)c2[nH]c(=O)n(CCCCN3CCN(C(C)C)CC3)c2n1 [Example 69, 6-Amino-9-{4-[4-(1-methylethyl)-1-piperazinyl]butyl}-2-{[(1S)-1-methylpentyl]oxy}-7,9-dihydro-8H-purin-8-one] | < 3.16 |
| CC(C)Oc1nc(N)c2[nH]c(=O)n(CCCCCN3CCN(C(C)C)CC3)c2n1 [Example 70, 6-Amino-2-[(1-methylethyl)oxy]-9-{5-[4-(1-methylethyl)-1-piperazinyl]pentyl}-7,9-dihydro-8H-purin-8-one] | < 3.16 |
| CC(C)N1CCN(CCCCn2c(=O)[nH]c3c(N)nc(OC4CCC4)nc32)CC1 [Example 71, 6-Amino-2-(cyclobutyloxy)-9-{4-[4-(1-methylethyl)-1-piperazinyl]butyl}-7,9-dihydro-8H-purin-8-one] | < 3.16 |
| CC(C)N1CCN(CCCCn2c(=O)[nH]c3c(N)nc(OC4CCCC4)nc32)CC1 [Example 72, 6-Amino-2-(cyclopentyloxy)-9-{4-[4-(1-methylethyl)-1-piperazinyl]butyl}-7,9-dihydro-8H-purin-8-one] | < 3.16 |
| CC(C)N1CCN(CCCCn2c(=O)[nH]c3c(N)nc(OC4CCCCC4)nc32)CC1 [Example 73, 6-Amino-2-(cyclohexyloxy)-9-{4-[4-(1-methylethyl)-1-piperazinyl]butyl}-7,9-dihydro-8H-purin-8-one] | < 3.16 |
| CCC[C@@H](C)Nc1nc(N)c2[nH]c(=O)n(CCCCN3CCN(C(C)C)CC3)c2n1 [Example 74, 6-Amino-2-{[(1R)-1-methylbutyl]amino}-9-{4-[4-(1-methylethyl)-1-piperazinyl]butyl}-7,9-dihydro-8H-purin-8-one] | < 3.16 |
| CCC[C@H](C)Nc1nc(N)c2[nH]c(=O)n(CCCCN3CCN(C(C)C)CC3)c2n1 [Example 75, 6-Amino-2-{[(1S)-1-methylbutyl]amino}-9-{4-[4-(1-methylethyl)-1-piperazinyl]butyl}-7,9-dihydro-8H-purin-8-one] | < 3.16 |
